Experimental data from patent publication US20240166610A1, “SUBSTITUTED PYRIDAZINE PHENOL DERIVATIVES” (MEDSHINE DISCOVERY INC., priority 2021, published 2024).
Where a name gives a salt, the structure may show the parent alone.

How the values were obtained:
[1] = biological target: T1, NLRP3 (Homo sapiens, UniProt Q96P20); experiment: Detecting IC50 of NLRP3 inhibitor by using THP-1 cells (IL-1β secretion, CBA); assay type: cell-based; conditions: PMA/LPS/ATP, IL-1β in supernatant
T1 construct: This experiment utilized the human-derived monocyte cell line THP1; endogenous in cells; host or cells: THP-1 (human monocyte line, PMA-differentiated into macrophages)
T1 sequence (Q96P20 whole entry): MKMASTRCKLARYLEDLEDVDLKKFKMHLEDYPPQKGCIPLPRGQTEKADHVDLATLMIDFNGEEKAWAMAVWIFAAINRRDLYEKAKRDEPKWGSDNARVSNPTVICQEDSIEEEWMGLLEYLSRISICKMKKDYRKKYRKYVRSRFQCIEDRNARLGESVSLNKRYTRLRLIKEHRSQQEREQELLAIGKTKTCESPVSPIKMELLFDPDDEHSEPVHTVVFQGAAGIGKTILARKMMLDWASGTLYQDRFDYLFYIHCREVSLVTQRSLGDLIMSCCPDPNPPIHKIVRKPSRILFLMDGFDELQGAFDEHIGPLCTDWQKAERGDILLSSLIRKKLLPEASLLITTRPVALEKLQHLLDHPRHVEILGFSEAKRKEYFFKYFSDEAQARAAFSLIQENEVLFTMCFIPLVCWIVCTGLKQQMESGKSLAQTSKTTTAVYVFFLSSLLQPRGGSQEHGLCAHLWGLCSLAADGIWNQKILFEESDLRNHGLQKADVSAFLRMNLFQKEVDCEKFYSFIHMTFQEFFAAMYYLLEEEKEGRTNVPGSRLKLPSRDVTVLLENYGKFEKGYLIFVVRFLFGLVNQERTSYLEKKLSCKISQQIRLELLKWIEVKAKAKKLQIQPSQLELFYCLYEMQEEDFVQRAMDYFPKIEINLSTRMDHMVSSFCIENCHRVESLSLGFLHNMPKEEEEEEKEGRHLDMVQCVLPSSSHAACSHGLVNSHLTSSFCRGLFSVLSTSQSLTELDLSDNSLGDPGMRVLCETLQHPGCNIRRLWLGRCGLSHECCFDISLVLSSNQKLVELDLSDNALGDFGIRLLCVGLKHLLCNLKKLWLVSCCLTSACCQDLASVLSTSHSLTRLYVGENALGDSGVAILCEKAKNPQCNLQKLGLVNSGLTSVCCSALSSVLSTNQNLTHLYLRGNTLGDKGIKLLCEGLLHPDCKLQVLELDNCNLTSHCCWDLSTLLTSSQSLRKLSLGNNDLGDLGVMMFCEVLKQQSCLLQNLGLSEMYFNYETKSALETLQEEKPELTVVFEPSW
Excerpt: 1. Experimental principle: This experiment utilized the human-derived monocyte cell line THP1 to investigate the inhibitory activity (IC50) of NLRP3 inhibitor on cellular IL-1β secretion. PMA (12-O-tetradecanoylphorbol-13-acetate) was used to differentiate the monocyte cell line THP1 into mature macrophages, which were then stimulated using LPS (lipopolysaccharide), an agonist of the Toll-like receptor TLR4, to activate the transcriptional activity of the inflammasome NLRP3 and the expression of pro-IL-1β, a precursor of IL-1β. At this time, the inhibitor of NLRP3 was added, and then ATP (adenosine triphosphate) was added to further mature and activate NLRP3, and activate downstream caspase-1. Activated caspase-1 may enzymatically process pro-IL-1β into mature IL-1β that can be secreted.
(1) The density of THP1 cells was adjusted to 5×10^5 cells/mL, then PMA was added, and the final concentration was adjusted to 100 ng/mL. The cells were inoculated 200 μL/well into a 96-well flat-bottom plate, stimulated overnight (<16 hours if possible) at 37° C. and 5% CO2.
(2) The supernatant was discarded the next day, and then the cells were carefully washed twice with Dulbecco's phosphate-buffered saline (200 μL/time).
(3) The cells were stimulated with LPS at a final concentration of 100 ng/mL, added to a 96-well plate (200 μL/well), and cultured at 37° C. and 5% CO2 for 3 hours.
The cells were incubated for 1 hour in a 37° C., 5% CO2 incubator.
(5) ATP was added to each well with a final concentration of 5 mM, and cultured overnight (>18 hours) at 37° C. and 5% CO2.
(6) On the third day, 5 μL of the supernatant was taken, diluted 10-fold, and the content of IL-1β in the supernatant was detected by cytometric bead array (CBA).

[2] = In vivo pharmacokinetic evaluation in SD rats; conditions: male, rat, plasma, dose IV/PO 1/2 mg/kg; for half-life / clearance / Vd: 1 mg/kg; for half-life: IV, read-out: Half-life T1/2 (IV) (converted); for clearance: read-out: Clearance rate CL; for Vd: read-out: Tissue distribution Vdss; for AUC(0-t): PO, read-out: Area under drug-time curve AUC0-last PO; for bioavailability: read-out: Bioavailability F; for Cmax: read-out: Peak concentration Cmax
Experimental: Experimental Example 3: In Vivo Pharmacokinetic Evaluation of Compounds in SD Rats
Experimental Purpose: To Test the In Vivo Pharmacokinetics of the Compounds in SD Rats
The rodent pharmacokinetic characteristics after intravenous injection and oral administration of the compounds were tested using a standard protocol. The candidate compound was prepared as a clear solution during the experiment and given to SD rats for single intravenous injection and oral administration. The vehicle for intravenous injection and oral administration was a mixed vehicle composed of 5% dimethyl sulfoxide and 95% 5% solutol. Four male SD rats were used in this project. Two SD rats were administered intravenously, and plasma samples were collected at 0.083, 0.25, 0.5, 1, 2, 4, 8, and 24 hours after administration. The other two SD rats were administered orally by gavage, and plasma samples were collected at 0.25, 0.5, 1, 2, 4, 8, and 24 hours after administration. The plasma concentration was quantitatively analyzed by LC-MS/MS analysis method, and the pharmacokinetic parameters were calculated, such as peak concentration (Cmaz), clearance rate (CL), half-life (T1/2), […] (Vdss), area under drug-time curve (AUC0-last), bioavailability (F).

[3] = In vivo pharmacokinetic evaluation in CD-1 mice; conditions: male, mouse, plasma, dose IV/PO 1/2 mg/kg; for half-life / clearance / Vd: 1 mg/kg; for half-life: IV, read-out: Half-life T1/2 (IV) (converted); for clearance: read-out: Clearance rate CL; for Vd: read-out: Tissue distribution Vdss; for AUC(0-t): PO, read-out: Area under drug-time curve AUC0-last PO; for bioavailability: read-out: Bioavailability F; for Cmax: read-out: Peak concentration Cmax
Experimental: Experimental Example 2: In Vivo Pharmacokinetic Evaluation of Compounds in CD-1 Mice
Experimental purpose: To test the in vivo pharmacokinetics of the compounds in CD-1 mice
CD-1 mice (male, 7 to 9 weeks old)
The rodent pharmacokinetic characteristics after intravenous injection and oral administration of the compounds were tested using a standard protocol. The candidate compound was prepared as a clear solution during the experiment and given to mice for single intravenous injection and oral administration. The vehicle for intravenous injection and oral administration was a mixed vehicle composed of 5% dimethyl sulfoxide and 95% 5% solutol. Four male CD-1 mice were used in this project. Two mice were administered intravenously (IV), and plasma samples were collected at 0 hours (before administration) and 0.0833, 0.25, 0.5, 1, 2, 4, 8, and 24 hours after administration. The other two mice were administered orally by gavage (PO), and plasma samples were collected at 0 hours (before administration) and 0.25, 0.5, 1, 2, 4, 8, and 24 hours after administration. The plasma concentration was quantitatively analyzed by LC-MS/MS analysis method, and the pharmacokinetic parameters were calculated, such as peak concentration (Cmax), clearance rate (CL), half-life (T1/2), […] (Vdss), area under drug-time curve (AUC0-last), bioavailability (F).

Row | SMILES | IC50 [1] [nM] | other results
1 | Cc1cc(N[C@@H]2CCCN(C)C2)nnc1-c1ccc2c(c1O)CCC2 [Compound 2] | 0.24 | –
2 | Cc1cc(N[C@@H]2CCCN(C)C2)nnc1-c1ccc2ccsc2c1O [Formate of compound 45] | 0.078 | –
3 | Cc1cc(N[C@H]2CCCC[C@@H]2O)nnc1-c1ccc2sccc2c1O [Hydrochloride of compound 64] | 21.1 | –
4 | Cc1cc(N[C@@H]2CCCN(C3CCOC3)C2)nnc1-c1ccc(C2CC2)cc1O (stereo partly shown) [Compound 30] | 3.39 | –
5 | Cc1cc(N[C@@H]2CCCN(C(=O)CCN(C)C)C2)nnc1-c1ccc2sccc2c1O [Compound 51] | 0.142 | –
6 | Cc1cc(N[C@@H]2CCCN(C3CCOC3)C2)nnc1-c1ccc2sccc2c1O (stereo partly shown) [Formate of compound 42] | 0.274 | half-life [2]: 1.72 h; clearance [2]: 6.08 mL/min/kg; Vd [2]: 0.837 L/kg; AUC(0-t) [2]: 9.15 µM·h; bioavailability [2]: 71.2%; Cmax [2]: 2100 nM
7 | Cc1cc2c(O)c(-c3nnc(N[C@@H]4CCCC[C@H]4O)cc3C)ccc2s1 [Hydrochloride of compound 67] | 16.6 | –
8 | Cc1cc(N[C@@H]2CCCN(C)C2)nnc1-c1ccc(-c2ccc(F)cc2)cc1O [Compound 4] | – | half-life [3]: 25.7 h; clearance [3]: 0.795 mL/min/kg; Vd [3]: 1.72 L/kg; AUC(0-t) [3]: 54.3 µM·h; bioavailability [3]: 102%; Cmax [3]: 2900 nM
9 | Cc1cc(N[C@@H]2CCCN(C(C)C)C2)nnc1-c1ccc2sccc2c1O [Compound 39] | 0.09 | half-life [2]: 2.19 h; clearance [2]: 15.3 mL/min/kg; Vd [2]: 2.63 L/kg; AUC(0-t) [2]: 4.53 µM·h; bioavailability [2]: 85.1%; Cmax [2]: 573 nM
10 | Cc1cc(N[C@@H]2CCCN(C3COC3)C2)nnc1-c1ccc(C2CCCC2)cc1O [Compound 27a] | 41.5 | –
11 | COC1CC(N2CCC[C@@H](Nc3cc(C)c(-c4ccc5sccc5c4O)nn3)C2)C1 (stereo partly shown) [Compound 49] | 0.882 | –
12 | Cc1cc2c(O)c(-c3nnc(NCCN(C)C)cc3C)ccc2s1 [Hydrochloride of compound 58] | 0.85 | –
13 | Cc1cc(N[C@@H]2CCCN(C)C2)nnc1-c1ccc2sc(F)c(F)c2c1O [Hydrochloride of compound 44b] | 4.19 | –
14 | Cc1cc2c(O)c(-c3nnc(N[C@@H]4CCCN(C)C4)cc3C)ccc2s1 [Hydrochloride of compound 43] | 1.76 | –
15 | Cc1cc(N[C@@H]2CCCN(CC(N)=O)C2)nnc1-c1ccc2c(c1O)CCC2 [Compound 12b] | 3.13 | –
16 | Cc1cc(N[C@@H]2CCCN(C3COC3)C2)nnc1-c1ccc(C2CCC2)cc1O [Compound 25] | 31.1 | –

Row | SMILES | IC50 [1] [nM] | other results
17 | Cc1cc(N[C@@H]2CCCN(C3CCOCC3)C2)nnc1-c1ccc(C2CC2)cc1O [Compound 31] | 2.09 | –
18 | Cc1cc2c(O)c(-c3nnc(N[C@H]4COC[C@@H]4O)cc3C)ccc2s1 [Hydrochloride of compound 66] | 8.18 | –
19 | Cc1cc(N[C@@H]2CCCN(C3COC3)C2)nnc1-c1ccc(C2=CCCC2)cc1O [Compound 27b] | 25.5 | –
20 | Cc1cc(N[C@@H]2CCCN(CC(C)(C)O)C2)nnc1-c1ccc2sccc2c1O [Formate of compound 47] | 0.69 | –
21 | Cc1cc(N[C@@H]2CCCN(C)C2)nnc1-c1ccc2sc(F)cc2c1O [Hydrochloride of compound 44a] | 0.076 | –
22 | Cc1cc(N[C@@H]2CCCN(C3CCC3)C2)nnc1-c1ccc2c(c1O)CCC2 [Hydrochloride of compound 19] | 0.76 | –
23 | Cc1c(N[C@@H]2CCCC[C@H]2O)nnc(-c2ccc3sccc3c2O)c1C [Hydrochloride of compound 73] | 3.21 | –
24 | Cc1cc(N[C@@H]2CCCN(C(=O)C3CC3)C2)nnc1-c1ccc2sccc2c1O [Compound 41] | 6.87 | –
25 | Cc1cc(N[C@@H]2CCCN(C3CCOCC3)C2)nnc1-c1ccc2sccc2c1O [Formate of compound 46] | 0.289 | –
26 | Cc1cc(NC2CCCN(C3CC(O)C3)C2)nnc1-c1ccc2sccc2c1O (stereo not shown) [Compound 50] | 1.94 | –
27 | Cc1c(N[C@@H]2CCCN(C)C2)nnc(-c2ccc3sccc3c2O)c1C [Hydrochloride of compound 72] | 0.318 | –
28 | Cc1cc(N[C@@H]2CCCN(C3COC3)C2)nnc1-c1ccc2sccc2c1O [Compound 26] | 0.52 | half-life [2]: 1.1 h; clearance [2]: 12.3 mL/min/kg; Vd [2]: 0.789 L/kg; AUC(0-t) [2]: 7.4 µM·h; bioavailability [2]: 108%; Cmax [2]: 2910 nM; half-life [3]: 1.75 h; clearance [3]: 16.6 mL/min/kg; Vd [3]: 1.71 L/kg; AUC(0-t) [3]: 3.9 µM·h; bioavailability [3]: 78.8%; Cmax [3]: 2070 nM
29 | CN1CCC[C@@H](Nc2ccc(-c3ccc4sccc4c3O)nn2)C1 [Hydrochloride of compound 74] | 19.4 | –
30 | Cc1cc(N[C@@H]2CCCN(C3COC3)C2)nnc1-c1ccc2ccccc2c1O [Compound 28] | 18.7 | –
31 | Cc1cc(Nc2cccnc2)nnc1-c1ccc2sccc2c1O [Hydrochloride of compound 65] | 6.07 | –
32 | Cc1cc(N[C@@H]2CCCN(CC3CC3)C2)nnc1-c1ccc2sccc2c1O [Compound 40] | 0.19 | –
